In brackets after ≈: the same amount, converted by molar mass.
Key:
Klebsiella pneumoniae = test: Broth microdilution MIC (Example 11)
Escherichia coli [1] = test: Broth microdilution MIC (Example 11)
E. faecalis = test: Broth microdilution MIC (Example 11); conditions: Enterococcus faecalis, VRE, VRE Lev^R Cip^R Ery^R
Escherichia coli [2] = conditions: E. coli MMX 102 (ATCC 25922); CLSI QC ranges shown in parenthesis; cited from earlier work
Pseudomonas aeruginosa [3] = test: Broth microdilution MIC (Example 11); conditions: Pseudomonas aeruginosa
Acinetobacter baumannii = test: Broth microdilution MIC (Example 11); conditions: Acinetobacter baumannii
Pseudomonas aeruginosa [4] = conditions: P. aeruginosa MMX 103 (ATCC 27853); CLSI QC ranges shown in parenthesis; cited from earlier work
Enterobacter cloacae = test: Broth microdilution MIC (Example 11); conditions: ATCCBAA2468
[5] = tested on: Staphylococcus aureus (MRSA); test: Broth microdilution MIC (Example 11)
Haemophilus influenzae = test: Broth microdilution MIC against Haemophilus influenzae clinical isolates; conditions: Haemophilus influenzae
[6] = tested on: vancomycin-intermediate Staphylococcus aureus (VISA); test: Broth microdilution MIC (Example 12); conditions: Staphylococcus aureus, NRS13 / VISA, read-out: MIC values
S. agalactiae = test: Broth microdilution MIC (Example 11); conditions: Streptococcus agalactiae
S. pyogenes = test: Broth microdilution MIC (Example 11); conditions: Streptococcus pyogenes
S. pneumoniae = test: Broth microdilution MIC (Example 11); conditions: Streptococcus pneumoniae
[7] = K. pneumoniae MMX 4622, KPC-2, MEM^R, CAZ^R
[8] = K. pneumoniae MMX 4623, KPC-2, MEM^R, CAZ^R, GM^R
[9] = K. pneumoniae MMX 4653, KPC-3, Lev^R, MEM^R, CAZ^R
[10] = K. pneumoniae MMX 4683, KPC-2, Lev^R, MEM^R, CAZ^R
[11] = K. pneumoniae MMX 4684, ESBL, MEM^R
[12] = K. pneumoniae MMX 4685, ESBL, Lev^R, MEM^R, CAZ^R
[13] = K. pneumoniae MMX 4694, KPC-3, Lev^R, MEM^R, CAZ^R
[14] = K. pneumoniae MMX 5979, NDM-1, Lev^R, MEM^R, CAZ^R, Gm^R
[15] = ATCC25922, E. coli MMX 102 (ATCC 25922), QC
[16] = ATCCBAA2469, E. coli MMX 5980 (ATCC BAA-2469), NDM-1, Lev^R, MEM^R, CAZ^R, Gm^R
[17] = E. coli MMX 8423, ESBL, Lev^R, CAZ^R, Gm^R
[18] = E. coli MMX 8425, ESBL, Lev^R, CAZ^R, Gm^R
[19] = ATCC27853, P. aeruginosa MMX 103 (ATCC 27853), QC
[20] = P. aeruginosa MMX 1381, MDR, Lev^R, Cip^R, MEM^R, CAZ^R
[21] = P. aeruginosa MMX 2562, MDR, Lev^R, Cip^R, MEM^R, CAZ^R
[22] = P. aeruginosa MMX 3991, MDR, Lev^R, Cip^R, MEM^R, CAZ^R
[23] = P. aeruginosa MMX 4654, IMP-7, Lev^R, Cip^R, MEM^R, CAZ^R
[24] = P. aeruginosa MMX 4697, VIM-2, Lev^R, Cip^R, MEM^R, CAZ^R
[25] = A. baumannii MMX 2592, MDR, Lev^R, Cip^R, MEM^R, CAZ^R, Gm^R
[26] = A. baumannii MMX 2593, MDR, Lev^R, Cip^R, MEM^R, CAZ^R, Gm^R
[27] = A. baumannii MMX 3372, MDR, Cip^R, MEM^I, CAZ^I
[28] = A. baumannii MMX 3373, Sensitive
[29] = NCTC13304, A. baumannii MMX 4651 (NCTC 13304), MDR, OXA-27, Lev^R, Cip^R, MEM^R, CAZ^R, Gm^I
[30] = ATCC29213|MRSA|MSSA, S. aureus MMX 101 (ATCC 29213), QC, MSSA
[31] = MRSA, S. aureus MMX 5373, MRSA Lev^R Cip^R CC^R Ery^R Ox^R
[32] = MRSA, S. aureus MMX 6311, MRSA Lev^R Cip^R CC^R Ery^R Ox^R
[33] = MRSA, S. aureus MMX 9203, MRSA Lev^R Cip^R Ery^R Ox^R
[34] = MRSA, S. aureus MMX 9204, MRSA Lev^R Cip^R Ery^R Ox^R
[35] = MRSA, S. aureus MMX 9205, MRSA Lev^R Cip^R CC^R Ery^R Ox^R

CC(C)(O/N=C(\C(=O)N[C@@H]1C(=O)N2C(C(=O)[O-])=C(C[n+]3ccccc3)CS[C@H]12)c1csc(N)n1)C(=O)O [Ceftazidime]
MIC (Klebsiella pneumoniae; [7]): > 32 µg/mL | MIC (Klebsiella pneumoniae; [8]): > 32 µg/mL | MIC (Klebsiella pneumoniae; [9]): > 32 µg/mL | MIC (Klebsiella pneumoniae; [10]): > 32 µg/mL | MIC (Klebsiella pneumoniae; [11]): 8 µg/mL (≈ 14.6 µM) | MIC (Klebsiella pneumoniae; [12]): > 32 µg/mL | MIC (Klebsiella pneumoniae; [13]): > 32 µg/mL | MIC (Klebsiella pneumoniae; [14]): > 32 µg/mL | MIC (Escherichia coli [1]; [15]): 0.12 µg/mL (≈ 0.22 µM) | MIC (Escherichia coli [1]; [16]): > 32 µg/mL | MIC (Escherichia coli [1]; [17]): 32 µg/mL (≈ 58.5 µM) | MIC (Escherichia coli [1]; E. coli MMX 8424, ESBL, CAZ^R): 16 µg/mL (≈ 29.3 µM) | MIC (Escherichia coli [1]; [18]): 16 µg/mL (≈ 29.3 µM) | MIC (E. faecalis; E. faecalis MMX 8960): > 32 µg/mL | MIC (E. faecalis; E. faecalis MMX 8961): > 32 µg/mL | MIC (E. faecalis; E. faecalis MMX 8962): > 32 µg/mL | CLSI QC range of MIC (Escherichia coli [2]): (0.06-0.5) μg/mL | MIC (Pseudomonas aeruginosa [3]; [19]): 2 µg/mL (≈ 3.66 µM) | MIC (Pseudomonas aeruginosa [3]; [20]): 32 µg/mL (≈ 58.5 µM) | MIC (Pseudomonas aeruginosa [3]; [21]): > 32 µg/mL | MIC (Pseudomonas aeruginosa [3]; [22]): 16 µg/mL (≈ 29.3 µM) | MIC (Pseudomonas aeruginosa [3]; [23]): > 32 µg/mL | MIC (Pseudomonas aeruginosa [3]; [24]): 32 µg/mL (≈ 58.5 µM) | MIC (Acinetobacter baumannii; [25]): 32 µg/mL (≈ 58.5 µM) | MIC (Acinetobacter baumannii; [26]): 32 µg/mL (≈ 58.5 µM) | MIC (Acinetobacter baumannii; [27]): 16 µg/mL (≈ 29.3 µM) | MIC (Acinetobacter baumannii; [28]): 4 µg/mL (≈ 7.32 µM) | MIC (Acinetobacter baumannii; [29]): > 32 µg/mL | CLSI QC range of MIC (Pseudomonas aeruginosa [4]): (1-4) μg/mL | MIC (Enterobacter cloacae): > 32 µg/mL | MIC [5, 30]: 8 µg/mL (≈ 14.6 µM) | MIC [5, 31]: > 32 µg/mL | MIC [5, 32]: > 32 µg/mL | MIC [5, 33]: > 32 µg/mL | MIC [5, 34]: > 32 µg/mL | MIC [5, 35]: > 32 µg/mL

C[C@H]1COc2c(N3CCN(C)CC3)c(F)cc3c(=O)c(C(=O)O)cn1c23 [Levofloxacin, reference compound]
MIC (Klebsiella pneumoniae; [7]): 1 µg/mL (≈ 2.77 µM) | MIC (Klebsiella pneumoniae; [8]): 1 µg/mL (≈ 2.77 µM) | MIC (Klebsiella pneumoniae; [9]): 64 µg/mL (≈ 177 µM) | MIC (Klebsiella pneumoniae; [10]): > 64 µg/mL | MIC (Klebsiella pneumoniae; [11]): 0.03 µg/mL (≈ 0.083 µM) | MIC (Klebsiella pneumoniae; [12]): 32 µg/mL (≈ 88.6 µM) | MIC (Klebsiella pneumoniae; [13]): 64 µg/mL (≈ 177 µM) | MIC (Klebsiella pneumoniae; [14]): > 64 µg/mL | MIC50 (Haemophilus influenzae): 0.015 µg/mL (≈ 0.0415 µM) | MIC90 (Haemophilus influenzae): 0.015 µg/mL (≈ 0.0415 µM) | MIC [6]: ≥ 4 µg/mL | MIC (Escherichia coli [1]; [15]): 0.015 µg/mL (≈ 0.0415 µM) | MIC (Escherichia coli [1]; [16]): 16 µg/mL (≈ 44.3 µM) | MIC (Escherichia coli [1]; [17]): 16 µg/mL (≈ 44.3 µM) | MIC (Escherichia coli [1]; E. coli MMX 8424, ESBL, CAZ^R): 0.06 µg/mL (≈ 0.166 µM) | MIC (Escherichia coli [1]; [18]): 16 µg/mL (≈ 44.3 µM) | MIC (E. faecalis; E. faecalis MMX 8960): 32 µg/mL (≈ 88.6 µM) | MIC (E. faecalis; E. faecalis MMX 8961): 64 µg/mL (≈ 177 µM) | MIC (E. faecalis; E. faecalis MMX 8962): 64 µg/mL (≈ 177 µM) | MIC (S. agalactiae; S. agalactiae MMX 3741, ERY^R CC^R): 0.5 µg/mL (≈ 1.38 µM) | MIC (S. agalactiae; S. agalactiae MMX 3743, ERY^R CC^R): 1 µg/mL (≈ 2.77 µM) | MIC (S. agalactiae; S. agalactiae MMX 4077, ERY^R CC^R): 0.5 µg/mL (≈ 1.38 µM) | MIC (S. agalactiae; S. agalactiae MMX 4079, ERY^R CC^R Pen^R MEM^R): 1 µg/mL (≈ 2.77 µM) | MIC (S. agalactiae; S. agalactiae MMX 4086, ERY^R CC^R): 0.5 µg/mL (≈ 1.38 µM) | MIC (S. pyogenes; S. pyogenes MMX 3068, Ery^R): 0.5 µg/mL (≈ 1.38 µM) | MIC (S. pyogenes; S. pyogenes MMX 3820, ERY^R CLI^R): 0.25 µg/mL (≈ 0.692 µM) | MIC (S. pyogenes; S. pyogenes MMX 3919, ERY^R): 0.12 µg/mL (≈ 0.332 µM) | MIC (S. pyogenes; S. pyogenes MMX 3929, ERY^R CC^R): 0.5 µg/mL (≈ 1.38 µM) | MIC (S. pyogenes; S. pyogenes MMX 5091, ERY^R CC^R): 0.25 µg/mL (≈ 0.692 µM) | CLSI QC range of MIC (Escherichia coli [2]): (0.008-0.06)^1 μg/mL | MIC (Pseudomonas aeruginosa [3]; [19]): 1 µg/mL (≈ 2.77 µM) | MIC (Pseudomonas aeruginosa [3]; [20]): 64 µg/mL (≈ 177 µM) | MIC (Pseudomonas aeruginosa [3]; [21]): 64 µg/mL (≈ 177 µM) | MIC (Pseudomonas aeruginosa [3]; [22]): 64 µg/mL (≈ 177 µM) | MIC (Pseudomonas aeruginosa [3]; [23]): 64 µg/mL (≈ 177 µM) | MIC (Pseudomonas aeruginosa [3]; [24]): 32 µg/mL (≈ 88.6 µM) | MIC (Acinetobacter baumannii; [25]): 64 µg/mL (≈ 177 µM) | MIC (Acinetobacter baumannii; [26]): 32 µg/mL (≈ 88.6 µM) | MIC (Acinetobacter baumannii; [27]): 1 µg/mL (≈ 2.77 µM) | MIC (Acinetobacter baumannii; [28]): 0.12 µg/mL (≈ 0.332 µM) | MIC (Acinetobacter baumannii; [29]): 8 µg/mL (≈ 22.1 µM) | CLSI QC range of MIC (Pseudomonas aeruginosa [4]): (0.5-4) μg/mL | MIC (Enterobacter cloacae): 64 µg/mL (≈ 177 µM) | MIC [5, 30]: 0.12 µg/mL (≈ 0.332 µM) | MIC [5, 31]: 32 µg/mL (≈ 88.6 µM) | MIC [5, 32]: 32 µg/mL (≈ 88.6 µM) | MIC [5, 33]: 4 µg/mL (≈ 11.1 µM) | MIC [5, 34]: 4 µg/mL (≈ 11.1 µM) | MIC [5, 35]: > 64 µg/mL | MIC (S. pneumoniae; ATCC49619, S. pneumoniae MMX 6837 (ATCC 49619), QC): 0.5 µg/mL (≈ 1.38 µM) | MIC (S. pneumoniae; S. pneumoniae MMX 880, Lev^R SXT^R CC^R Ery^R Pen^R): 8 µg/mL (≈ 22.1 µM) | MIC (S. pneumoniae; S. pneumoniae MMX 937, Mem^R SXT^R CC^R Ery^R Pen^R): 1 µg/mL (≈ 2.77 µM) | MIC (S. pneumoniae; S. pneumoniae MMX 3959, CC^R Ery^R): 1 µg/mL (≈ 2.77 µM) | MIC (S. pneumoniae; S. pneumoniae MMX 5440, Mem^R SXT^R CC^R Ery^R Pen^R): 1 µg/mL (≈ 2.77 µM) | MIC (S. pneumoniae; S. pneumoniae MMX 5445, Mem^R SXT^R CC^R Ery^R Pen^R): 1 µg/mL (≈ 2.77 µM) | MIC (S. pneumoniae; S. pneumoniae MMX 8133, Mem^R SXT^R CC^R Ery^R Pen^R): 1 µg/mL (≈ 2.77 µM)

From patent US11464749B2, “Bismuth-thiol compositions and methods of use” (Microbion Corporation, priority 2018, dated 2022)
